Results as given in patent US20230355674A1, “DONOR T-CELLS WITH KILL SWITCH” (CSL Behring LLC, priority 2020, published 2023).
Entries after “also recorded” stand apart in the source; their conditions may differ.

Legend:
K562 cells = experiment: Negative selection with MTX, transduced or transfected K562 cells; assay type: cell-based, human; conditions: 0.3 μM of MTX
Description: Transduced or transfected K562 cells (such as those from Example 1) were cultured with or without MTX from day 0 to day 14. The medium was refreshed every 3 to 4 days. GFP was analyzed on a flow machine and the InDel % was analyzed by T7E1 assay. […] On the other hand, the population of cells was steady without MTX. FIG. 14B illustrates that the transfected K562 cells were eliminated under treatment with 0.3 μM of MTX at a faster pace as compared with the HPRT-knockdown population.

CEM cells = experiment: Negative selection with MTX or MPA, transduced or transfected CEM cells; assay type: cell-based; conditions: 0.3 μM of MTX, day 0 to day 14
Description: Transduced or transfected CEM cells (such as those from Example 1) were cultured with or without MTX from day 0 to day 14. The medium was refreshed every 3 to 4 days. GFP was analyzed on flow machine and InDel % was analyzed by T7E1 assay.

[1] = MTX dose response in 6-TG selected CEM cells; assay type: cell-based; conditions: human, wild type CEM T cell leukemia cells, 0.5 μM MTX, thymidine 16 μM, read-out: viable wild type (WT) cells
Description: CEM T cell leukemia cells modified by 8 guide RNAs targeting the HPRT1 gene were cultured for 1 week in the presence of 10 μM 6-TG, replenished with fresh 6-TG every 48-72 hours. Following the selection period and confirmation of HPRT protein reduction, the CEM cells were tested for their sensitivity to a dose range of […], methotrexate (MTX) for 3 days in the presence of thymidine 16 μM (T1895 Sigma).

HPRT1 gene [2] = experiment: ICE scoring (indel, knockout score) of gRNA editing in CEM cells; assay type: cell-based, human
Description: The top candidate guide RNAs from Example 21 were screen in Jurkat cell lines (n=1) and validated in CEM cell lines (n=2). For instance, Jurkat cells were electroporated with a ribonucleoprotein (RNP) complex containing guide RNA (e.g. an RNP including a guide RNA having any one of SEQ ID NOS: 40-49) together with the Cas9 and tracrRNA. The methodology and analysis was the same for both Jurkat cell lines and CEM cell lines (see also, FIG. 37). Following electroporation, cell viability was measured at different concentrations of 6-TG (see FIG. 36).
(§1) Indel Percentage—The editing efficiency (percentage of the pool with non-wild type sequence) as determined by comparing the edited trace to the control trace. In the ICE algorithm, potential editing outcomes are proposed and fitted to the observed data using linear regression.
(§2) Knockout Score—Represents the proportion of cells that have either a frameshift or 21+bp indel. This score is a useful measure for those who are interested in understanding how many of the contributing indels are likely to result in a functional Knockout (KO) of the targeted gene.
(§3) CEM T cell leukemia cells were electroporated (1600V, 10 ms pulse width, 3 pulses by using the Neon Transfection system) with ribonucleoprotein (RNP) complexes containing guide RNA (see Example 21) designed in-house and obtained from Integrated DNA Technologies (IDT), together with Cas9 and tracrRNA. Cells confirmed to be transfected with the gRNA via the use of the tracr RNA (24 hours post electroporation) were purified using fluorescence activated cells sorting (FACS) prior to culture for a further 72 hours, followed by assessment of cell survival when challenged with increasing concentrations of 6-thioguanine (6-TG) compared to wild type (unmodified) CEM cells.

HPRT1 gene [3] = experiment: ICE scoring (indel, knockout score) of gRNA editing in primary T cells; assay type: cell-based; conditions: primary human T cells
Description: as §1, §2
FIG. 44 illustrates a method of modifying primary T-cells in accordance with one embodiment of the present disclosure. FIGS. 45A-45C illustrate 6-TG dose responses seven days following the modification of the primary T-cells in accordance with the modification methods described herein. In particular, FIGS. 45A and 45B illustrate the targeting of Exon 3 (guide RNA 13) and Exon 8 (guide RNA 21). The references “#9” and “#10” denote T-cell number and UT control (electroporated without RNP). […]
(§4) Peripheral blood mononuclear cells (PBMC) were isolated from Australian Red Cross Blood donor samples (n=2) via density centrifugation. […] By day 7, the original mixed PBMC population was determined to be primarily CD3+ T cells (flow cytometry; data not shown).

[4] = tested on: CEM T cell leukemia cells; experiment: 6-TG dose response of gRNA modified CEM cells 72 hours after electroporation; assay type: cell-based; conditions: 72 hours culture, 6-TG tested up to 40 μM, vs unmodified
Description: as §3

HPRT protein [5] = experiment: Western blot of HPRT protein in gRNA modified CEM cells; assay type: cell-based, human
Description: as §3
Unmodified and modified CEM cells were also used for isolation of protein and detection of the HPRT protein using Western blot (FIG. 39, top panel). […] Actin protein detection (FIG. 39, bottom panel) was used as a protein loading control.
as §3, with “(gRNA; legend)” for “(see Example 21)”, “10 days in the presence” for “a further 72 hours, followed by assessment”, “10 uM 6-TG, replenished” for “cell survival when challenged”, “fresh 6-TG every 48-72 hours.” for “increasing concentrations of 6-thioguanine (6-TG) compared to wild type (unmodified) CEM cells.”
Following the selection period, protein was extracted from each cell and used for western blot-based detection of the HPRT protein. Detection of beta-actin was used as a protein loading control (Actin Antibody (ACTBD11B7): sc-81178. Santa Cruz).

[6] = tested on: CEM T cell leukemia cells; experiment: 6-TG selection and 6-TG challenge of gRNA modified CEM cells (cell viability); assay type: cell-based; conditions: CEM, 10 μM 6-TG for 1 week, vs wild-type
Description: Cells confirmed to be transfected with the gRNA via the use of the tracr RNA (24 hours post electroporation) were purified using fluorescence activated cells sorting (FACS) prior to culture in 10 μM 6-TG for 1 week replenished with fresh 6-TG every 48-72 hours.
After 10 days in the presence of 10 uM 6-TG, replenished with fresh 6-TG every 48-72 hours, each cell line was challenged with increasing concentrations of 6-thioguanine (6-TG) and cell viability was compared to wild type (unmodified) CEM cells (see FIG. 40B).

primary human T cells [7] = experiment: 6-TG resistance of gRNA modified primary human T cells (viability); assay type: cell-based; conditions: donors #9 and #10, 1 uM 6-TG, day 8 and day 13, vs unmodified
Description: FIG. 44 illustrates a method of modifying primary T-cells in accordance with one embodiment of the present disclosure. FIGS. 45A-45C illustrate 6-TG dose responses seven days following the modification of the primary T-cells in accordance with the modification methods described herein. In particular, FIGS. 45A and 45B illustrate the targeting of Exon 3 (guide RNA 13) and Exon 8 (guide RNA 21). The references “#9” and “#10” denote T-cell number and UT control (electroporated without RNP). FIG. 45C illustrates unmodified cells from donor #9 and donor #10 tested with increasing concentrations of 6-TG (day 4). It was observed that the […] primary T-cells were very sensitive to low doses of 6-TG. ICE Scores are shown below.
as §4
The cells were then cultured for about 7 and about 12 days in the presence of 1 uM 6-TG, with 6-TG replenished every about 2 to about 3 days. At each of these time points, the cells were assessed for the proportion of viable cells compared to untreated (UT) controls.

HPRT protein [8] = experiment: Western blot of HPRT protein in gRNA modified primary T cells; assay type: cell-based, human; conditions: 72 hours after electroporation
primary human T cells [9] = experiment: MTX dose response in 6-TG selected primary human T cells; assay type: cell-based; conditions: primary human T cells after 12 days 1 μM 6-TG, MTX dose range 2 days, thymidine 16 μM
Description: Primary human T cells modified using guide RNAs targeting the HPRT1 gene and subsequently placed under selection pressure for 12 days with 1 μM 6-TG, with 6-TG replenished every 2 to 3 days, were subjected to a dose range of MTX in the presence of thymidine 16 μM for 2 days and assessed for cell viability.

Row | Compound | GFP population of transduced (HPRT knockdown) K562 cells (K562 cells; day 0 to day 14) | transfected (HPRT knockout) K562 cells (K562 cells; day 0 to day 14, compared with HPRT-knockdown population) | HPRT knockout population of CEM cells (CEM cells) | GFP population of transduced (HPRT knockdown) cells (CEM cells; CEM cells) | viability at 3 days, 0.5 µM [1] | editing (ICE scoring), in words (HPRT1 gene [2]) | knockout efficiency (ICE scoring) (HPRT1 gene [3]) | resistance to 6-TG challenge (cell survival) [4] | HPRT protein (Western blot) (HPRT protein [5]; 72 hours post-electroporation, no 6-TG selection, listed as guide 21) | HPRT protein (Western blot) (HPRT protein [5]; after 10 days of 6-TG selection (10 uM)) | cell viability under 6-TG selection [6] | proportion of viable cells under 6-TG (primary human T cells [7]) | HPRT protein (Western blot) (HPRT protein [8]) | sensitivity to MTX compared to wild-type non-modified cells (UT) (primary human T cells [9])
1 | CN(Cc1cnc2nc(N)nc(N)c2n1)c1ccc(C(=O)N[C@@H](CCC(=O)O)C(=O)O)cc1 [MTX, methotrexate] | decreased | eliminated | eliminated at a faster pace | decreased | 60% | – | – | – | – | – | – | – | – | –
2 | gRNA 21: sgRNA guide and PAM TATCCTACAACAAACTTGTCTGG, HPRT 1 target Exon 8 (listed as DNA, chemistry not given here) | – | – | – | – | – | efficient editing | about 1% | intermediate resistance | reduced compared to wildtype; also recorded: detectable levels of HPRT protein | limited to no detectable levels of HPRT | more variable viability | increased viability | residual HPRT protein was observed | increased sensitivity to MTX
